In patent publication US11685724B2, “Synthetic intermediates for novel cannabinoids and cannabinoid acids and their derivatives” (priority 2018, dated 2023):
Where two headings read alike, the source gives them in different places.

Key:
[1] = tested on: TRPV1 channels; assay: Calcium assay of TRPV1 channel activity in HEK-TRPV1 cells; format: cell-based; settings: Fluo-4 loaded, 1 mM external calcium chloride, 0-20 seconds baseline, compound added at 20 seconds, FIGS. 1A-1D
Method: Molecular Pharmacology, 2016, volume 90, pages 300-308) HEK 293 cells with TRPV1 channels have been used as model systems (P. Geppetti and M. Trevisani, Activation and sensitisation of the vanilloid receptor: role in gastrointestinal inflammation and function, British Journal of Pharmacology, 2004, volume 141, pages 1313-1320);
HEK TRexTRPV1 cultured in DMEM, 10% Fetal Bovine Serum, 2 mM L-glutamine, 10 microgramg/m1 Blasticidin (Calbiochem, San Diego Calif.), […] Zeocin (InvivoGen, San Diego Calif.), followed by inducing indicated transgene expression using 1 microgram/ml Tetracycline for 16-24 hrs. Comparisons made to untransfected HEK cells or HEKTRexTRPV1 with or without induction.
[…] Cells transferred to 96-well plates at 50,000 cells/well and stimulated as indicated. Calcium signals acquired using a Flexstation 3 (Molecular Devices, Sunnydale, USA). Data are analyzed according to the methods in I. Diaz-Franulic, J. Caceres-Molina, R. V. Sepulveda, F. Gonzalez-Nilo, R. Latorre, Structure-Driven Pharmacology of Transient Receptor Potential Channel Vanilloid 1, Molecular Pharmacology, 2016, volume 90, pages 300-8. […]

[2] = target: CB2 (Homo sapiens, UniProt P34972); settings: background statement with literature references; cited from earlier work
Chain of CB2 (P34972 whole entry, species assumed): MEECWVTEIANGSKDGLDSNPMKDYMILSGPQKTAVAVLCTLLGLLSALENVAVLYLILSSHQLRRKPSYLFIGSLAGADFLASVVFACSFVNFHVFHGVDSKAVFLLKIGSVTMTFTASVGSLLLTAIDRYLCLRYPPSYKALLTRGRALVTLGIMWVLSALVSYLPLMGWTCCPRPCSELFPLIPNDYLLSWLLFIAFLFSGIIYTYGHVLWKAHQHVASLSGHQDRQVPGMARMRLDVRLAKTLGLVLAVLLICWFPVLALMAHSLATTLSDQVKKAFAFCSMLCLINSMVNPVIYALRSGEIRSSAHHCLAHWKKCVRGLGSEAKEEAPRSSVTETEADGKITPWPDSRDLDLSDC

[3] = target: CB1 receptors (Homo sapiens, UniProt P21554); settings: cited from earlier work
Chain of CB1 receptors (P21554 whole entry): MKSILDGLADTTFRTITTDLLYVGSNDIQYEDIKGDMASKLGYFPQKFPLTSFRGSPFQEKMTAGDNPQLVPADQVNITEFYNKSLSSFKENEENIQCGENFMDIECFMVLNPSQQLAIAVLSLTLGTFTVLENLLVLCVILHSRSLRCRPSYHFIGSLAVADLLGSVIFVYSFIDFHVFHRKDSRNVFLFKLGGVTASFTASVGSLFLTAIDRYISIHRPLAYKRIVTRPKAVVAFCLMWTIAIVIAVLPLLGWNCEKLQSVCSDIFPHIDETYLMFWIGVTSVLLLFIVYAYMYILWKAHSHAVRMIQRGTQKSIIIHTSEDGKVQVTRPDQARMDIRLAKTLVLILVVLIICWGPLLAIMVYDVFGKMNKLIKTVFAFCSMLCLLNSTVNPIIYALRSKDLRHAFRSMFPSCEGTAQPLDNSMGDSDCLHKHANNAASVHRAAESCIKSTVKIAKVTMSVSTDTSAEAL

[4] = background statement with literature references

SMILES | biological finger print and dose response on TRPV1 channels (calcium signal), synthesized vs reference standard cannabidiol [1] | CB2 receptor modulation (kind of action) [2] | CB1 receptor modulation (kind of action) [3, 4] | CB1 receptor modulation (kind of action) [3]
C=C(C)[C@@H]1CCC(C)=C[C@H]1c1c(O)cc(CCCCC)cc1O [cannabidiol (11, CBD), Cannabidiol] | same “biological finger print” and dose response | do not interact significantly | do not interact significantly | 
C=C(C)[C@@H]1CCC(C)=C[C@H]1c1c(O)cc(CCC)cc1O [cannabidivarin (12), cannabidivarin] |  | do not interact significantly | do not interact significantly | 
CCCCCc1cc(O)c2c(c1)OC(C)(C)c1ccc(C)cc1-2 [cannabinol (10), cannabinol] |  | modest agonists |  | weak agonist
CCCc1cc(O)c2c(c1)OC(C)(C)[C@@H]1CCC(C)=C[C@@H]21 [tetrahydrocannabivarin (9), tetrahydrocannabivarin] |  | modest agonists | weak antagonist | 
